Values after ≈ are worked out from the molar mass of the structure shown.
system: rhinovirus B14; test: Antiviral activity against HRV-14; type: functional, organism-based; conditions: Rhinovirus B

SMILES | EC50
CCOC(=O)c1ccc(OCCC2CCN(c3ccc(C)nn3)CC2)cc1 [PIRODAVIR] | 0.0032 µg/mL (≈ 0.00866 µM)
Cc1cc(CCCOc2c(C)cc(-c3noc(C(F)(F)F)n3)cc2C)on1 [PLECONARIL] | 0.03 µg/mL (≈ 0.0787 µM)
CCOc1nc2cc(OCCC3CCN(c4ccc(C)nn4)CC3)ccc2o1 | 0.032 µg/mL (≈ 0.0837 µM)

Reference: ChEMBL document CHEMBL1667776, “Pharmacophore-based design, synthesis, and biological evaluation of novel chloro-pyridazine piperazines as human rhinovirus (HRV-3) inhibitors” (Bioorg Med Chem Lett, 2011)
